These results are taken from patent publication US5346913A, “N-iodopropargyl hydantoin compounds, compositions, preparation, and use as antimicrobial agents” (Rohm and Haas Company, priority 1992, dated 1994).

For one assay, the system named is Pseudomonas aerugenosa. Put plainly: MIC, broth two-fold serial dilution test, Pseudomonas aerugenosa (Psae). Type of assay: cell-based. An excerpt:
(§1) The compounds identified with a prime (') were the non-iodo analogues of the invention compounds, i.e., the compounds of formula III or IV. All data are reported in ppm of active ingredient required to control the respective organism. The indication "No In." means that the compound had no inhibitory activity at 500 ppm which was the maximum tested, and so if the "No In." compound were active, the minimum inhibitory concentration would be above 500 ppm. The comparative tests were not run side-by-side, but were run on different days using the same methods. […] A minimum inhibitory concentration (MIC) value is obtained using a broth, two-fold serial dilution test performed as follows: […] A volume of the stock solution is dispensed into culture media to give an initial starting test concentration of the compound of 500 ppm or 250 ppm. When the test is ready to be done, each vessel in the dilution series, except the first vessel, contains an equal volume of compound free broth. The first vessel contains twice the volume of broth with the starting concentration of test compound. One half of the broth from the first vessel is transferred to the second vessel. After being mixed, one half the resulting volume is removed from the second vessel and transferred to the third vessel. […] Each vessel is then inoculated with a cell suspension of the appropriate test organism. Bacteria are grown in broth and fungi on agar […] is grown in cooling tower media for a time and at a temperature appropriate to the species being tested. At the end of the growth period, the broth is vortexed to disperse the cells. In the case of fungi, the spores are harvested by pipetting water onto the slant and dislodging the spores with a sterile loop. The cell/spore suspension is standardized by controlling incubation time, temperature, and the volume of the diluent. The suspension is then used to inoculate the vessels containing the broth compound. The vessels are then incubated at the appropriate temperature. After the incubation, the vessels are examined for growth/no growth. The MIC is defined as the lowest concentration of compound that results in complete inhibition of growth of the test organism. BACTERIA: Pseudomonas fluorescens (Ps.fl), gram negative; Pseudomonas aerugenosa (Ps.ae), gram negative; Escherichia coli (E.c), gram negative; and Staphylococcus aureus (S.a), gram positive.

The next assay has as its system Escherichia coli. Put plainly: MIC, broth two-fold serial dilution test, Escherichia coli (Ecol). Type of assay: cell-based.
Text: as §1

Another assay has as its system Staphylococcus aureus. Put plainly: MIC, broth two-fold serial dilution test, Staphylococcus aureus (Saur). Format: cell-based.
Text: as §1

The subject of a further assay is Aspergillus niger. Put plainly: MIC, broth two-fold serial dilution test, Aspergillus niger (Anig). Type of assay: cell-based. To be noted: TSB.
Text: as §1, with “INDUSTRIAL FUNGI: Aspergillus niger (A.n); Aureobasidium pullulans (A.p)” for “BACTERIA: Pseudomonas fluorescens (Ps.fl), gram negative; Pseudomonas aerugenosa (Ps.ae), gram negative; Escherichia coli (E.c), gram negative; and Staphylococcus aureus (S.a), gram positive.”

In assay [1] the test system is Pseudoperonospora cubensis. Put plainly: whole plant or invertebrate. Format: in vivo. As to conditions: for pest or weed control at 200 ppm: Pseudoperonospora cubensis, in Cucumis sativus, 168 h, read-out: % Control CDM; for percent disease control CDM: in vivo.
For another assay, the system named is Piricularia oryzae. Put plainly: whole plant or invertebrate. To be noted: Pyricularia oryzae, read-out: % Control RB. Type of assay: in vivo.
The subject of assay [2] is Pellicularia filamentosa (f. sp. sasiki). Put plainly: whole plant or invertebrate. Type of assay: in vivo. To be noted: 120 h; read-out: % Control RSB.
Another assay relates to Phytophthora infestans. Put plainly: whole plant or invertebrate. Type of assay: in vivo. To be noted: for pest or weed control at 200 ppm / pest or weed control at 50 ppm: Phytophthora infestans, in Solanum lycopersicum, 96 h; for pest or weed control at 50 ppm: read-out: % Control TLB, secondary greenhouse test (Table 5), 50 ppm; for percent disease control TLB: advanced greenhouse test (Table 6), 0.25 kg a.i./ha.

For assay [3], the system named is Erysiphe graminis (f. sp. tritici). Put plainly: whole plant or invertebrate. Format: in vivo. As to conditions: for pest or weed control at 50 ppm / pest or weed control at 200 ppm: Blumeria graminis, read-out: % Control WPM; for percent disease control WPM: in vivo.
Assay [4] relates to Puccinia recondita (f. sp. tritici Races PKB and PLD). Put plainly: whole plant or invertebrate. Type of assay: in vivo. To be noted: for pest or weed control at 50 ppm / pest or weed control at 200 ppm: Puccinia recondita, 240 h, read-out: % Control WLR.
Another assay deals with Septoria nodorum. To be noted: in vivo.
The next assay relates to TLB, CDM, WLR, SNW, WPM. As to conditions: in vivo.
The mark [5] stands for this setting: read-out: % Control TLB, greenhouse test (Table 4), 200 ppm.
[6] abbreviates: read-out: % Control TLB, secondary greenhouse test (Table 5), 200 ppm.

≈ marks a conversion by molar mass, not a printed value. Like-named read-outs stand apart in the source and are kept apart here.

In the case of `O=C1N(c2cc(Cl)cc(Cl)c2)C(=O)C2(CCCCC2)N1CC#CI` [Compound 5, 1-(3-iodo-2-propynyl)-3-(3,5-dichlorophenyl)-5,5-spirocyclohexane-hydantoin], the MIC in the assay on Pseudomonas aerugenosa (M9G), with Pseudomonas aerugenosa (TSB), in the assay with Escherichia coli (M9G), with Escherichia coli (TSB), with Staphylococcus aureus (M9G) and with Staphylococcus aureus (TSB) was over 500 µg/mL in each case. The MIC against Aspergillus niger is over 500 µg/mL. The pest or weed control at 200 ppm worked out at 40% in [1], 95% in the assay on Phytophthora infestans (setting [5]), 0% in assay [3] and 0% in assay [4]. Further, the “percent disease control CDM” value in [1] is listed as 100.0%. The pest or weed control at 50 ppm was determined as 50% in the assay with Piricularia oryzae; 25% in assay [2]; 0% with Phytophthora infestans; 50% in assay [3]; 0% in [4]. The “percent disease control TLB” value with Phytophthora infestans was found to be 28.0%. The “percent disease control WPM” value in assay [3] turned out to be 67.0%. For the same compound, the “percent disease control WLR” value in [4] (in vivo) worked out at 80.0%. Further, in the assay on Septoria nodorum, the “percent disease control SNW” value worked out at 72.0%. In the assay on TLB, CDM, WLR, SNW, WPM, the “percent disease control Average” value stood at 69.4%.
Regarding `CC1C(=O)N(c2ccc(F)cc2)C(=O)N1CC#CI` (stereo not drawn) [Compound 3, 1-(3-iodo-2-propynyl)-3-(4-fiuorophenyl)-5-methylhydantoin], the MIC is over 500 µg/mL against Pseudomonas aerugenosa (M9G); over 500 µg/mL against Pseudomonas aerugenosa (TSB); over 500 µg/mL in the assay on Escherichia coli (M9G); 250 µg/mL (≈ 672 µM) against Escherichia coli (TSB); over 500 µg/mL with Staphylococcus aureus (M9G); over 500 µg/mL against Staphylococcus aureus (TSB). For the same compound, the MIC against Aspergillus niger turned out to be 4 µg/mL (≈ 10.7 µM). Besides, the pest or weed control at 200 ppm in [1] was found to be 50%; with Piricularia oryzae, 50%; in [2] it was 0%; with Phytophthora infestans (setting [5]), 0%; in the assay on Phytophthora infestans (setting [6]), 95%; in assay [3], 40%. Moreover, the pest or weed control at 200 ppm in assay [4] worked out at 95%. Further, the “percent disease control CDM” value in assay [1] was 100.0%. For the same compound, the pest or weed control at 50 ppm in the assay on Piricularia oryzae worked out at 50%; in assay [2], 0%; with Phytophthora infestans, 0%; in assay [3], 50%; in assay [4] it was 0%. The “percent disease control TLB” value in the assay on Phytophthora infestans was found to be 52.0%. The “percent disease control WPM” value in assay [3] turned out to be 65.0%. Further, the “percent disease control WLR” value in [4] (in vivo) was 75.0%. In addition, the “percent disease control SNW” value in the assay on Septoria nodorum turned out to be 47.0%. The “percent disease control Average” value in the assay on TLB, CDM, WLR, SNW, WPM turned out to be 67.8%.
Take `CC1C(=O)N(c2ccc(Cl)cc2)C(=O)N1CC#CI` (stereo not drawn) [Compound 2, 1-(3-iodo-2-propynyl)-3-(4-chlorophenyl)-5-methylhydantoin]: the MIC in the assay with Pseudomonas aerugenosa (M9G) was over 500 µg/mL; against Pseudomonas aerugenosa (TSB), over 500 µg/mL; with Escherichia coli (M9G), over 500 µg/mL; against Escherichia coli (TSB), 500 µg/mL (≈ 1290 µM); in the assay on Staphylococcus aureus (M9G), over 500 µg/mL; in the assay on Staphylococcus aureus (TSB) it was over 500 µg/mL. In the assay with Aspergillus niger, this compound had an MIC of 2 µg/mL (≈ 5.15 µM). Further, the pest or weed control at 200 ppm amounted to 0% in assay [1]; 75% in the assay on Piricularia oryzae; 0% in assay [2]; 0% with Phytophthora infestans (setting [5]); 75% in the assay on Phytophthora infestans (setting [6]); 75% in [3]. Also, in assay [4], the pest or weed control at 200 ppm was 85%. In [1], the “percent disease control CDM” value is listed as 98.0%. Further, the pest or weed control at 50 ppm in the assay with Piricularia oryzae was 50%; in assay [2] it was 0%; with Phytophthora infestans, 50%; in assay [3] it was 50%; in [4], 80%. Besides, the “percent disease control TLB” value in the assay with Phytophthora infestans was found to be 38.0%. Besides, in assay [3], the “percent disease control WPM” value is listed as 53.0%. In addition, the “% Control WLR” value in assay [4] (in vivo) turned out to be 90%. In addition, in assay [4] (in vivo), the “percent disease control WLR” value amounted to 83.0%. Moreover, in the assay with Septoria nodorum, the “percent disease control SNW” value came out at 90.0%. Moreover, the “percent disease control Average” value with TLB, CDM, WLR, SNW, WPM turned out to be 72.4%.
On to `CC1(C)C(=O)N(c2cc(Cl)cc(Cl)c2)C(=O)N1CC#CI` [Compound 6, 1-(3-iodo-2-propynyl)-3-(3,5-dichlorophenyl)-5,5-dimethylhydantoin], for which the MIC is over 500 µg/mL in the assay with Pseudomonas aerugenosa (M9G); over 500 µg/mL against Pseudomonas aerugenosa (TSB); over 500 µg/mL against Escherichia coli (M9G); over 500 µg/mL in the assay on Escherichia coli (TSB); 8 µg/mL (≈ 18.3 µM) with Staphylococcus aureus (M9G); 2 µg/mL (≈ 4.58 µM) in the assay with Staphylococcus aureus (TSB). Moreover, the MIC in the assay on Aspergillus niger is 1 µg/mL (≈ 2.29 µM). In addition, the “percent disease control CDM” value in assay [1] was found to be 100.0%. The “percent disease control TLB” value in the assay on Phytophthora infestans was determined as 70.0%. The “percent disease control WPM” value in assay [3] stood at 68.0%. In addition, the “percent disease control WLR” value in assay [4] (in vivo) worked out at 82.0%. Also, the “percent disease control SNW” value in the assay with Septoria nodorum worked out at 68.0%. Moreover, the “percent disease control Average” value with TLB, CDM, WLR, SNW, WPM amounted to 77.6%.
With `CC(C)(C#CI)N1CC(=O)N(c2cc(Cl)cc(Cl)c2)C1=O` [Compound 13, 1-(1,1-dimethyl-3-iodo-2-propynyl)-3-(3,5-dichlorophenyl)hydantoin], the MIC in the assay on Pseudomonas aerugenosa (M9G), in the assay with Pseudomonas aerugenosa (TSB), against Escherichia coli (M9G), against Escherichia coli (TSB), in the assay with Staphylococcus aureus (M9G) and against Staphylococcus aureus (TSB) was over 500 µg/mL in each case. Besides, the MIC against Aspergillus niger amounted to 8 µg/mL (≈ 18.3 µM). Further, the pest or weed control at 200 ppm came to 80% in assay [1]; 50% in the assay on Piricularia oryzae; 75% in assay [2]; 70% in the assay with Phytophthora infestans (setting [5]); 50% in the assay on Phytophthora infestans (setting [6]); 75% in assay [3]. Moreover, the pest or weed control at 200 ppm in [4] is 90%. For the same compound, the pest or weed control at 50 ppm in the assay on Piricularia oryzae came to 50%; in assay [2], 50%; in the assay on Phytophthora infestans, 0%; in assay [3], 50%; in [4], 50%.

One may read the MIC as the lowest concentration that inhibits growth of the organism. The low end stands for a more susceptible organism, the high end for a less susceptible organism.
